Experimental data reported in patent US11174268B2, “Benzenesulfonamide compouds and their use as therapeutic agents” (Xenon Pharmaceuticals Inc., priority 2016, dated 2021).
Where a name gives a salt, the structure may show the parent alone.

What was measured:
NaV1.5 = NaV1.5 (Homo sapiens (Human), UniProt Q14524); test: Sodium Influx Assay (Flux), NaV1.5; details: read-out: Flux NaV1.5 IC50; Trex HEK293 cells, ANG2 dye, inactivated state
NaV1.6 = NaV1.6 (Homo sapiens (Human), UniProt Q9UQD0); test: Sodium Influx Assay (Flux), NaV1.6; type: cell-based; details: Trex HEK293 cells, ANG2 dye, inactivated state;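 also: Tetracycline-induced cells, compounds applied for one hour at room temperature with modulators holding channels open, IC50 from percent inhibition of sodium influx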
NaV1.1 = NaV1.1 (Homo sapiens (Human), UniProt P35498); test: Sodium Influx Assay (Flux), NaV1.1; type: cell-based; details: Trex HEK293 cells, ANG2 dye, inactivated state;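 also: channels co-expressed with human β1 subunit and held open by modulators, cells exposed to compounds for one hour at room temperature, IC50 from percent inhibition of influx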

NaV1.5, sequence (Q14524 other isoform, or with tags, fused parts or gaps): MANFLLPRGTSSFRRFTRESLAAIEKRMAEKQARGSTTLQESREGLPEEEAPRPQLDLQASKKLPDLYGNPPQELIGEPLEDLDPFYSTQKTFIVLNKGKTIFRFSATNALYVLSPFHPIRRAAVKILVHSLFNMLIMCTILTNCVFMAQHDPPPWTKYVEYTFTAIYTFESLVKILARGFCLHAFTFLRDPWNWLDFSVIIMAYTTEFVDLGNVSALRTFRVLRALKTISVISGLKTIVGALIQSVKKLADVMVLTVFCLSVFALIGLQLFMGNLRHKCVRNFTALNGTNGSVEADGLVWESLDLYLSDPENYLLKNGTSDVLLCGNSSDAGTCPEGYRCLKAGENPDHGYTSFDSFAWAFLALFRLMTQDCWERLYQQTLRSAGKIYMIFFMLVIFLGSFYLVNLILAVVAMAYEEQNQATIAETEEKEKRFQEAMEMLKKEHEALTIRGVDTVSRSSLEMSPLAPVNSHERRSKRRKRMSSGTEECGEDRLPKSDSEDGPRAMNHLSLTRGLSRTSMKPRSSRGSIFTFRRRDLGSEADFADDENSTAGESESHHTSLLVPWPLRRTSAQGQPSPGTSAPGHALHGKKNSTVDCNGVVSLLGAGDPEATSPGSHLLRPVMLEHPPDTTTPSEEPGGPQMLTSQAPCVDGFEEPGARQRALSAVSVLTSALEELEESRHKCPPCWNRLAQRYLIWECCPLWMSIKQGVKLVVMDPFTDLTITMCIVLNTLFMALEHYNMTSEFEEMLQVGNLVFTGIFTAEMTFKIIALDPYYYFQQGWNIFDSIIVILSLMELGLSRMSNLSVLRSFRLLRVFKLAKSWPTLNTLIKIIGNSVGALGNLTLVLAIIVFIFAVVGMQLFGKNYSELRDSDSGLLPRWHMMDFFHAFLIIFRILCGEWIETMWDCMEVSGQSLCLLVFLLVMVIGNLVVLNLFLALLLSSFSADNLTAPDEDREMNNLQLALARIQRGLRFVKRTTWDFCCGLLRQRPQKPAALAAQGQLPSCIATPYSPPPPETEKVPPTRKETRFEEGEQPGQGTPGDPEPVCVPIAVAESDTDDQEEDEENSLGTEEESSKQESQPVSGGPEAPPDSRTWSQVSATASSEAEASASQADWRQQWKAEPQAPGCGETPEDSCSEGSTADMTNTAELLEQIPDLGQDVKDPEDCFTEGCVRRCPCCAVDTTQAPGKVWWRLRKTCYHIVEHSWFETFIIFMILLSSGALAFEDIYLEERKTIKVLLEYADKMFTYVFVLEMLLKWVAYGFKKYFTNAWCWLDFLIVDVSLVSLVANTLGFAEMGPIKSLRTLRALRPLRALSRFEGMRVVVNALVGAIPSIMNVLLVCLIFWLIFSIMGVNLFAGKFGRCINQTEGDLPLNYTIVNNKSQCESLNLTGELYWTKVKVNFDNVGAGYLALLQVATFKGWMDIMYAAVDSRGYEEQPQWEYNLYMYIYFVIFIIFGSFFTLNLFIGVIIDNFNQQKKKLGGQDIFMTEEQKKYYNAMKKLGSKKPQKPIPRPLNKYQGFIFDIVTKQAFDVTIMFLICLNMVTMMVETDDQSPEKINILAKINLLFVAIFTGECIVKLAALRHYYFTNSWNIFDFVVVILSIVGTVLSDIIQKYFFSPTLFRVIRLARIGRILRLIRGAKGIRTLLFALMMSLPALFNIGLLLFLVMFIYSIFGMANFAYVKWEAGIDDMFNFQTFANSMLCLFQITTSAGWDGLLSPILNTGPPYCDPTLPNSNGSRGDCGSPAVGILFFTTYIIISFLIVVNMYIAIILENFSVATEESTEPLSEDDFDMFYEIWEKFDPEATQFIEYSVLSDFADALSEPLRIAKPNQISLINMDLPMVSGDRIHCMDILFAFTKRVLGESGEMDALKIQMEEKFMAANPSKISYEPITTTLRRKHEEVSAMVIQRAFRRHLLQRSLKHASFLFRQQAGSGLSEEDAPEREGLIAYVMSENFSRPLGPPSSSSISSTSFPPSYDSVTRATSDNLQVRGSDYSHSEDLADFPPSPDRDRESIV

What does the source list for `O=S(=O)(Nc1ccon1)c1ccc(NCc2c(F)cccc2CN2CCCC2)c(F)c1F` [Example 294, 2,3-difluoro-4-((2-fluoro-6-(pyrrolidin-1-ylmethyl)benzyl)amino)-N-(isoxazol-3-yl)benzenesulfonamide 2,2,2-trifluoroacetate]?
IC50 (NaV1.5): 30 µM; IC50 (NaV1.6): 0.688 µM; IC50 (NaV1.1): 30 µM

Which IC50 (NaV1.5) does the source give for `O=S(=O)(Nc1cscn1)c1c(F)cc(NCc2c(Cl)ccc(F)c2CN2CCC2)cc1F` [Example 309, 4-((2-(azetidin-1-ylmethyl)-6-chloro-3-fluorobenzyl)amino)-2,6-difluoro-N-(thiazol-4-yl)benzenesulfonamide 2,2,2-trifluoroacetate] here?
Its IC50 is 27.6 µM.

And the IC50 (NaV1.6)?
Its IC50 is 0.085 µM.

What about the IC50 (NaV1.1) of the same molecule?
Its IC50 is 6.34 µM.

How did the IC50 (NaV1.5) turn out when `O=S(=O)(Nc1cscn1)c1c(F)cc(NCc2c(F)cccc2CN2CCC2)c(Cl)c1F` [Example 303, 4-((2-(azetidin-1-ylmethyl)-6-fluorobenzyl)amino)-3-chloro-2,6-difluoro-N-(thiazol-4-yl)benzenesulfonamide 2,2,2-trifluoroacetate] was run?
Its IC50 is 24.5 µM.

What about the IC50 (NaV1.6) of the same molecule?
Its IC50 is 0.007 µM.

And the IC50 (NaV1.1)?
Its IC50 is 5.73 µM.

How did the IC50 (NaV1.5) turn out when `O=S(=O)(Nc1nccs1)c1cc(Cl)c(NC2CCCc3ncccc32)cc1F` (stereo not drawn) [Example 98, 5-chloro-2-fluoro-4-((5,6,7,8-tetrahydroquinolin-5-yl)amino)-N-(thiazol-2-yl)benzenesulfonamide formate] was run?
The IC50 was 11 µM.

And the IC50 (NaV1.6)?
Its IC50 is 0.299 µM.

And the IC50 (NaV1.1)?
Its IC50 is 0.303 µM.

Which IC50 (NaV1.5) does the source give for `Cc1c(NCc2c(F)cccc2CN2CCC2(C)C)ccc(S(=O)(=O)Nc2cscn2)c1F` [Example 306, 4-((2-((2,2-dimethylazetidin-1-yl)methyl)-6-fluorobenzyl)amino)-2-fluoro-3-methyl-N-(thiazol-4-yl)benzenesulfonamide] here?
Its IC50 is 8.1 µM.

What about the IC50 (NaV1.6) of the same molecule?
Its IC50 is 0.241 µM.

What about the IC50 (NaV1.1) of the same molecule?
Its IC50 is 18.1 µM.

Which IC50 (NaV1.5) does the source give for `C[C@H](Nc1cc(F)c(S(=O)(=O)Nc2nccs2)cc1Cl)c1cccc(Br)c1` [Example 7, (S)-4-((1-(3-bromophenyl)ethyl)amino)-5-chloro-2-fluoro-N-(thiazol-2-yl)benzenesulfonamide] here?
Its IC50 is 9.68 µM.

And the IC50 (NaV1.6)?
The IC50 was 0.376 µM.

And the IC50 (NaV1.1)?
Its IC50 is 3 µM.

How did the IC50 (NaV1.5) turn out when `C[C@H](Nc1cc(F)c(S(=O)(=O)Nc2ccnc(C(F)(F)F)n2)cc1Cl)c1ccccc1Cl` [Example 245, (S)-5-chloro-4-((1-(2-chlorophenyl)ethyl)amino)-2-fluoro-N-(2-(trifluoromethyl)pyrimidin-4-yl)benzenesulfonamide] was run?
Its IC50 is 6.55 µM.

What about the IC50 (NaV1.6) of the same molecule?
Its IC50 is 5.38 µM.

And the IC50 (NaV1.1)?
The IC50 was 10.5 µM.

For `O=S(=O)(Nc1cscn1)c1c(F)cc(NC2(c3ccccc3)CC2)cc1F` [Example 231, 2,6-difluoro-4-[(1-phenylcyclopropyl)amino]-N-thiazol-4-yl-benzenesulfonamide], which IC50 (NaV1.5) is on record?
Its IC50 is 30 µM.

What about the IC50 (NaV1.6) of the same molecule?
Its IC50 is 4.21 µM.

And the IC50 (NaV1.1)?
Its IC50 is 17.5 µM.

Which IC50 (NaV1.5) does the source give for `Cc1cc(S(=O)(=O)Nc2ccon2)c(F)cc1NCc1c(F)cccc1CN1CCC1` [Example 219, 4-((2-(azetidin-1-ylmethyl)-6-fluorobenzyl)amino)-2-fluoro-N-(isoxazol-3-yl)-5-methylbenzenesulfonamide] here?
The IC50 was 30 µM.

What about the IC50 (NaV1.6) of the same molecule?
Its IC50 is 0.28 µM.

What about the IC50 (NaV1.1) of the same molecule?
The IC50 was 30 µM.

Which IC50 (NaV1.5) does the source give for `O=S(=O)(Nc1cscn1)c1c(F)cc(N[C@@H]2C[C@H](N3CCC3)c3ccccc32)cc1F` [Example 289, 4-(((1R,3S)-3-(azetidin-1-yl)-2,3-dihydro-1H-inden-1-yl)amino)-2,6-difluoro-N-(thiazol-4-yl)benzenesulfonamide] here?
The IC50 was 30 µM.

And the IC50 (NaV1.6)?
The IC50 was 0.556 µM.

What about the IC50 (NaV1.1) of the same molecule?
Its IC50 is 4.27 µM.

For `O=S(=O)(Nc1ccncn1)c1c(F)cc(NCc2ccccc2CN2CCC2)cc1F` [Example 311, 4-((2-(azetidin-1-ylmethyl)benzyl)amino)-2,6-difluoro-N-(pyrimidin-4-yl)benzenesulfonamide formate], which IC50 (NaV1.5) is on record?
The IC50 was 30 µM.

And the IC50 (NaV1.6)?
The IC50 was 0.219 µM.

And the IC50 (NaV1.1)?
Its IC50 is 26.4 µM.

How did the IC50 (NaV1.5) turn out when `COCCN(C)Cc1cccc(F)c1CNc1cc(F)c(S(=O)(=O)Nc2cscn2)c(F)c1` [Example 162, 2,6-difluoro-4-((2-fluoro-6-(((2-methoxyethyl)(methyl)amino)methyl)benzyl)amino)-N-(thiazol-4-yl)benzenesulfonamide formate] was run?
Its IC50 is 11 µM.

What about the IC50 (NaV1.6) of the same molecule?
The IC50 was 0.461 µM.

And the IC50 (NaV1.1)?
The IC50 was 30 µM.

Which IC50 (NaV1.5) does the source give for `Cc1cc(N[C@@H](C)c2ccccc2F)c(Cl)cc1S(=O)(=O)Nc1nccs1` [Example 269, (S)-5-chloro-4-((1-(2-fluorophenyl)ethyl)amino)-2-methyl-N-(thiazol-2-yl)benzenesulfonamide] here?
The IC50 was 6.72 µM.

And the IC50 (NaV1.6)?
The IC50 was 0.584 µM.

What about the IC50 (NaV1.1) of the same molecule?
Its IC50 is 2.78 µM.

Which results are given for `CC(C)C[C@@H](Nc1cc(F)c(S(=O)(=O)Nc2nccs2)cc1Cl)c1ccccc1` [Example 110, (R)-5-chloro-2-fluoro-4-((3-methyl-1-phenylbutyl)amino)-N-(thiazol-2-yl)benzenesulfonamide]?
IC50 (NaV1.5): 3.15 µM; IC50 (NaV1.6): 1.03 µM; IC50 (NaV1.1): 3.84 µM

For `C[C@H](Nc1cc(F)c(S(=O)(=O)Nc2ncc(Cl)s2)cc1Cl)c1ccccc1F` [Example 267, (S)-5-chloro-2-fluoro-4-((1-(2-fluorophenyl)ethyl)amino)-N-(5-chlorothiazol-2-yl)benzenesulfonamide], which IC50 (NaV1.5) is on record?
Its IC50 is 6.96 µM.

What about the IC50 (NaV1.6) of the same molecule?
Its IC50 is 0.959 µM.

And the IC50 (NaV1.1)?
The IC50 was 3.58 µM.

For `C[C@@H](Nc1cc(F)c(S(=O)(=O)Nc2cscn2)cc1Cl)c1cccc(CN(C)C)c1` [Example 254, (R)-5-chloro-4-((1-(3-((dimethylamino)methyl)phenyl)ethyl)amino)-2-fluoro-N-(thiazol-4-yl)benzenesulfonamide formate], which IC50 (NaV1.5) is on record?
Its IC50 is 3.62 µM.

What about the IC50 (NaV1.6) of the same molecule?
Its IC50 is 9.44 µM.

What about the IC50 (NaV1.1) of the same molecule?
The IC50 was 14.1 µM.

With `COC1CN(Cc2cccc(F)c2CNc2cc(F)c(S(=O)(=O)Nc3cscn3)cc2Cl)C1` [Example 248, 5-chloro-2-fluoro-4-((2-fluoro-6-((3-methoxyazetidin-1-yl)methyl)benzyl)amino)-N-(thiazol-4-yl)benzenesulfonamide 2,2,2-trifluoroacetate] as the molecule, how does the IC50 (NaV1.5) read?
The IC50 was 26.5 µM.

What about the IC50 (NaV1.6) of the same molecule?
The IC50 was 0.431 µM.

And the IC50 (NaV1.1)?
Its IC50 is 21.4 µM.

Which results are given for `Cc1cc(NCc2ccccc2CN2CCC2)c(F)c(F)c1S(=O)(=O)Nc1cscn1` [Example 312, 4-((2-(azetidin-1-ylmethyl)benzyl)amino)-2,3-difluoro-6-methyl-N-(thiazol-4-yl)benzenesulfonamide 2,2,2-trifluoroacetate]?
IC50 (NaV1.5): 9.59 µM; IC50 (NaV1.6): 0.135 µM; IC50 (NaV1.1): 7.26 µM

Which IC50 (NaV1.5) does the source give for `COC[C@H]1CCCN1Cc1cccc(F)c1CNc1cc(F)c(S(=O)(=O)Nc2cscn2)c(F)c1` [Example 154, (R)-2,6-difluoro-4-((2-fluoro-6-((2-(methoxymethyl)pyrrolidin-1-yl)methyl)benzyl)amino)-N-(thiazol-4-yl)benzenesulfonamide formate] here?
The IC50 was 30 µM.

And the IC50 (NaV1.6)?
The IC50 was 0.451 µM.

And the IC50 (NaV1.1)?
Its IC50 is 28.8 µM.

How did the IC50 (NaV1.5) turn out when `C[C@H](Nc1cc(F)c(S(=O)(=O)Nc2cscn2)cc1Cl)c1cc(OC2COC2)ccc1F` [Example 235, (S)-5-chloro-2-fluoro-4-((1-(2-fluoro-5-(oxetan-3-yloxy)phenyl)ethyl)amino)-N-(thiazol-4-yl)benzenesulfonamide] was run?
Its IC50 is 30 µM.

What about the IC50 (NaV1.6) of the same molecule?
The IC50 was 3.02 µM.

What about the IC50 (NaV1.1) of the same molecule?
The IC50 was 22.4 µM.

How did the IC50 (NaV1.5) turn out when `CC(Nc1ccc(S(=O)(=O)Nc2nccs2)cc1Cl)c1cnn(C)c1` (stereo not drawn) [Example 83, 3-chloro-4-((1-(1-methyl-1H-pyrazol-4-yl)ethyl)amino)-N-(thiazol-2-yl)benzenesulfonamide] was run?
The IC50 was 30 µM.

What about the IC50 (NaV1.6) of the same molecule?
Its IC50 is 12.3 µM.

What about the IC50 (NaV1.1) of the same molecule?
Its IC50 is 11 µM.
